For three compounds, IC50 results are on record in US20090227648A1, “PYRAZOLE DERIVATIVES USEFUL FOR THE TREATMENT OF CANCER” (AstraZeneca AB, priority 2004, published 2009).

Broadly, the IC50 is the concentration that inhibits the measured activity by half.

For this experiment, the target named is T1, human Trk A kinase (Homo sapiens, UniProt P04629).
T1 construct: HIS; made in house; host or cells: SF9 insect cells
In words: Trk A kinase Alphascreen assay. The settings on record: intracellular domain of HIS-tagged human Trk A (aa 442-796), 70 μM ATP, 20 minutes, room temperature; read-out: Trk A inhibitory activity IC50. Type of experiment: biochemical. As for the experimental part:
Trk A kinase activity was measured for its ability to phosphorylate synthetic tyrosine residues within a generic polypeptide substrate using an Amplified Luminescent Proximity Assay (Alphascreen) technology (PerkinEilmer, 549 Albany Street, Boston, Mass.).
To measure Trk A kinase activity, the intracellular domain of a HIS-tagged human Trk A kinase (amino acids 442-796 of Trk A, Swiss-Prot Primary Accession Number P04629) was expressed in SF9 cells and purified using standard nickel column chromatography. After incubation of the kinase with a biotinylated substrate and adenosine triphosphate (ATP) for 20 minutes at room temperature, the kinase reaction was stopped by the addition of 30 mM ethylenediaminetetraacetic acid (EDTA). The reaction was performed in 384 well microtitre plates and the reaction products were detected with the addition of strepavidin coated Donor Beads and phosphotyrosine-specific antibodies coated Acceptor Beads using the EnVision Multilabel Plate Reader after an overnight incubation at room temperature.
On the technique in general: Bead proximity is the source of the signal in Alpha formats.

T1 sequence (P04629 442-796): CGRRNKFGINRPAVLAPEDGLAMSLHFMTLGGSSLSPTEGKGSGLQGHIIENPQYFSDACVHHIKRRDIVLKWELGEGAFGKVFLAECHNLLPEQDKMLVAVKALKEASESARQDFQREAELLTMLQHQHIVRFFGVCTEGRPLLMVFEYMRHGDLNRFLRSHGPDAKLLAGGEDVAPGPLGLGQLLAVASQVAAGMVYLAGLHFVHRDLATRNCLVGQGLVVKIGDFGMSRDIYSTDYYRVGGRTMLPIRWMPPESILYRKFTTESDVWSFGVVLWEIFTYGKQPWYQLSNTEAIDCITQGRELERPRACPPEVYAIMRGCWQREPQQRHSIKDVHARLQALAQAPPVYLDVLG

Regarding `C[C@H](Nc1cc(Nc2cc(C3CC3)[nH]n2)c([N+](=O)[O-])cc1F)c1ccc(F)cc1` [Example 13, (S)—N^1-(5-Cyclopropyl-1H-pyrazol-3-yl)-4-fluoro-N^3-(1-(4-fluorophenyl)ethyl)-6-nitrobenzene-1,3-diamine], the half-maximal inhibitory concentration (IC50) turned out to be 426 nM.

On to `C[C@H](Nc1cc(NCCO)c([N+](=O)[O-])c(Nc2cc(C3CC3)[nH]n2)c1)c1ccc(F)cc1` [Example 17, (S)-2-(3-(5-Cyclopropyl-1H-pyrazol-3-ylamino)-5-(1-(4-fluorophenyl)ethylamino)-2-nitrophenylamino)ethanol], for which the IC50 is 1240 nM.

Take `N#Cc1cc([N+](=O)[O-])c(Nc2cc(C3CC3)[nH]n2)cc1N[C@@H](CO)c1ccc(F)cc1` [Example 10, (R)-4-(5-Cyclopropyl-1H-pyrazol-3-ylamino)-2-(1-(4-fluorophenyl)-2-hydroxyethylamino)-5-nitrobenzonitrile]: the IC50 came to 859 nM.
